Columns and labels:
[1] = Selectivity index, ratio of CC50 for human MT4 cells to EC50 for wild type HIV1 3B infected in human MT4 cells; type: toxicity, cell-based; conditions: read-out: Ratio CC50/EC50
[2] = Selectivity index, ratio of CC50 for human MT4 cells to EC50 for wild type HIV2 ROD infected in human MT4 cells; type: toxicity, cell-based; conditions: read-out: Ratio CC50/EC50
[3] = test system: Human immunodeficiency virus 2; assay: Antiviral activity against wild type HIV2 ROD infected in human MT4 cells assessed as reduction of virus-induced cytopathic effect after 5 days by MTT assay; type: functional, organism-based; conditions: Human immunodeficiency virus 2, ISOLATE ROD, MT4, 120 h
[4] = Cytotoxicity against human MT4 cells assessed as reduction in viability of mock infected cells after 5 days MTT assay; type: cell-based
[5] = test system: Human immunodeficiency virus 1; assay: Antiviral activity against wild type HIV1 3B infected in human MT4 cells assessed as reduction of virus-induced cytopathic effect after 5 days by MTT assay; type: functional, organism-based; conditions: Human immunodeficiency virus 1, 3B, MT4, 120 h
[6] = biological target: Human immunodeficiency virus type 1 reverse transcriptase (Human immunodeficiency virus 1, UniProt Q72547); assay: Inhibition of HIV1 reverse transcriptase assessed as reduction in biotin-dUTP incorporation using poly(rA)-oligo(dT) as template/primer and digoxigenin-dUTP/biotin-dUTP/dTTP nucleotides incubated for 1 hr by ELISA
[7] = test system: Human immunodeficiency virus 1; assay: Antiviral activity against HIV1 3B expressing reverse transcriptase Y181C mutant infected in human MT4 cells assessed as reduction of virus-induced cytopathic effect after 5 days by MTT assay; type: functional, organism-based; conditions: Human immunodeficiency virus 1, 3B, MT4, 120 h
[8] = test system: Human immunodeficiency virus 1; assay: Antiviral activity against HIV1 3B expressing reverse transcriptase L100I mutant infected in human MT4 cells assessed as reduction of virus-induced cytopathic effect after 5 days by MTT assay; type: functional, organism-based; conditions: Human immunodeficiency virus 1, 3B, MT4, 120 h
[9] = test system: Human immunodeficiency virus 1; assay: Antiviral activity against HIV1 […] expressing reverse transcriptase F227L/V106A double mutant infected in human MT4 cells assessed as reduction of virus-induced cytopathic effect after 5 days by MTT assay; type: functional, organism-based; conditions: Human immunodeficiency virus 1, MT4, 120 h
[10] = test system: Human immunodeficiency virus 1; assay: Antiviral activity against HIV1 3B expressing reverse transcriptase Y188L mutant infected in human MT4 cells assessed as reduction of virus-induced cytopathic effect after 5 days by MTT assay; type: functional, organism-based; conditions: Human immunodeficiency virus 1, 3B, MT4, 120 h
[11] = test system: Human immunodeficiency virus 1; assay: Antiviral activity against HIV1 3B expressing reverse transcriptase K103N mutant infected in human MT4 cells assessed as reduction of virus-induced cytopathic effect after 5 days by MTT assay; type: functional, organism-based; conditions: Human immunodeficiency virus 1, 3B, MT4, 120 h
[12] = test system: Human immunodeficiency virus 1; assay: Antiviral activity against HIV1 3B expressing reverse transcriptase E138K mutant infected in human MT4 cells assessed as reduction of virus-induced cytopathic effect after 5 days by MTT assay; type: functional, organism-based; conditions: Human immunodeficiency virus 1, 3B, MT4, 120 h
[13] = test system: Human immunodeficiency virus 1; assay: Antiviral activity against HIV1 RES056 infected in human MT4 cells assessed as reduction of virus-induced cytopathic effect after 5 days by MTT assay; type: functional, organism-based; conditions: Human immunodeficiency virus 1, RES056, MT4, 120 h
[14] = test system: Human immunodeficiency virus 1; assay: Potency index, ratio of delavirdine EC50 to compound EC50 for antiviral activity against HIV1 3B expressing reverse transcriptase K103N mutant infected in human MT4 cells; type: functional
[15] = test system: Human immunodeficiency virus 1; assay: Potency index, ratio of nevirapine EC50 to compound EC50 for antiviral activity against HIV1 3B expressing reverse transcriptase K103N mutant infected in human MT4 cells; type: functional
[16] = test system: Human immunodeficiency virus 1; assay: Potency index, ratio of efavirenz EC50 to compound EC50 for antiviral activity against HIV1 3B expressing reverse transcriptase K103N mutant infected in human MT4 cells; type: functional

IC50 [6] [nM]	Compound	selectivity ratio [1]	selectivity ratio [2]	EC50 [3] [nM]	CC50 at 120 h [4] [nM]	EC50 [5] [nM]	EC50 [7] [nM]	EC50 [8] [nM]	EC50 [9] [nM]	EC50 [10] [nM]	EC50 [11] [nM]	EC50 [12] [nM]	EC50 [13] [nM]	Ratio EC50 [14]	Ratio EC50 [15]	Ratio EC50 [16]
3400	Cc1cc(C#N)cc(C)c1Oc1cc(NCCN(C)C)nc(Nc2ccc(C#N)cc2)c1	114	< 1	> 1990	4670	41										
	O=C1Nc2ccc(Cl)cc2[C@@](C#CC2CC2)(C(F)(F)F)O1 [EFAVIRENZ]						6.8	100	210	340						
	COCCNc1cc(Oc2c(C)cc(C)cc2C)cc(Nc2ccc(C#N)cc2)n1	65	< 1	> 22900	56600	870										
	Cc1cc(C)c(Oc2cc(Nc3ccc(C#N)cc3)nc(NC3CC3)c2)c(C)c1	190	< 1	> 2580	6710	35										
	Cc1cc(C)c(Oc2cc(NCCC#N)nc(Nc3ccc(C#N)cc3)c2)c(C)c1	22	< 1	> 2100	5300	240										
	Cc1cc(C#N)cc(C)c1Oc1cc(NCC2CC2)nc(Nc2ccc(C#N)cc2)c1	> 201	< 1	> 125000	> 305000	1520										
	Cc1cc(C)c(Oc2cc(Cl)nc(Nc3ccc(C#N)cc3)c2)c(C)c1	15	< 1	> 2030	5590	370										
	Cc1cn([C@H]2C[C@H](N=[N+]=[N-])[C@@H](CO)O2)c(=O)[nH]c1=O [ZIDOVUDINE]	> 7.06	> 1050			6.7	7.1	5.2	4.8	11	8.3	13				
	Cc1cc(C)c(Oc2cc(NCC3CC3)nc(Nc3ccc(C#N)cc3)c2)c(C)c1	17	< 1	> 13100	32900	1990										
	Cc1cc(C#N)cc(C)c1Oc1nc(Nc2ccc(C#N)cc2)nc(N)c1Br [ETRAVIRINE]					3.5		6.6		22	3.2					
	COC(CNc1cc(Oc2c(C)cc(C)cc2C)cc(Nc2ccc(C#N)cc2)n1)OC	21	< 1	> 14500	33500	1630										
	C=CCNc1cc(Oc2c(C)cc(C)cc2C)cc(Nc2ccc(C#N)cc2)n1	35	< 1	> 9330	24300	700										
	Cc1cc(C)c(Oc2cc(NCCN(C)C)nc(Nc3ccc(C#N)cc3)c2)c(C)c1	109	< 1	> 1940	4670	43										
	Cc1cc(C)c(Oc2cc(NCCN3CCOCC3)nc(Nc3ccc(C#N)cc3)c2)c(C)c1	339	< 1	> 11100	24300	72	4930	5800	4520	9450	140	4590	8310			
	Cc1cc(C)c(Oc2cc(NCC3CCCO3)nc(Nc3ccc(C#N)cc3)c2)c(C)c1 (centres undefined)	> 163	< 1	> 125000	> 292000	1790										
	Cc1cc(C#N)cc(C)c1Oc1cc(NCCN2CCNCC2)nc(Nc2ccc(C#N)cc2)c1	10	< 1	> 2070	4430	430										
	COC(CNc1cc(Oc2c(C)cc(C#N)cc2C)cc(Nc2ccc(C#N)cc2)n1)OC	> 335	< 1	> 125000	> 282000	840										
	Cc1ccnc2c1NC(=O)c1cccnc1N2C1CC1 [NEVIRAPINE]					260		830		9610						
	Cc1cc(C)c(Oc2cc(NCCN3CCNCC3)nc(Nc3ccc(C#N)cc3)c2)c(C)c1	5	< 1	> 1650	3610	710										
	CC(C)Nc1cccnc1N1CCN(C(=O)c2cc3cc(NS(C)(=O)=O)ccc3[nH]2)CC1 [DELAVIRDINE]	30.4	733			33	2030	2100	1870	690	2480	43				
	COCCNc1cc(Oc2c(C)cc(C#N)cc2C)cc(Nc2ccc(C#N)cc2)n1	≥ 394	< 1	> 40700	≥ 98500	250										
	Cc1cc(C#N)cc(C)c1Oc1cc(NCCC#N)nc(Nc2ccc(C#N)cc2)c1	75	< 1	> 3210	7850	100	> 7850	1340	> 7850	> 7850	180	940	11100			
	C=CCNc1cc(Oc2c(C)cc(C#N)cc2C)cc(Nc2ccc(C#N)cc2)n1	55	< 1	> 8770	22200	400										
	Cc1cc(C#N)cc(C)c1Oc1cc(Nc2ccc(C#N)cc2)nc(NC2CC2)c1	47	< 1	> 4060	10300	220										
	Cc1cc(C#N)cc(C)c1Oc1cc(NCCN2CCOCC2)nc(Nc2ccc(C#N)cc2)c1	451	< 1	> 17400	37200	82	7550	8460	6040	8100	49	6410	4720	50	140	3
	Cc1cc(C#N)cc(C)c1Oc1cc(Cl)nc(Nc2ccc(C#N)cc2)c1	27	< 1	> 8550	22900	840										
	Cc1cc(C#N)cc(C)c1Oc1cc(NCC2CCCO2)nc(Nc2ccc(C#N)cc2)c1 (centres undefined)	> 216	< 1	> 125000	> 285000	1320										

From ChEMBL document CHEMBL3758129, “Design, synthesis and anti-HIV evaluation of novel diarylpyridine derivatives targeting the entrance channel of NNRTI binding pocket” (Eur J Med Chem, 2016)
